# Assay results published in patent publication US12599597B2, “Substituted N-benzhydrylacetamide inhibitors of jumanji domain histone demethylases for the treatment of cancer” (University of Kentucky Research Foundation, priority 2020, dated 2026).
# Tests used:
# Wnt signaling = experiment: TOPFlash (Wnt) reporter assay in stable HEK293T cell line; assay type: cell-based; conditions: for Percent inhibition at 1 μM: Table 3, Wnt reporter assay at 1 μM
# Source text: Wnt signaling is a key target for multiple human cancers, including but not limited to colon cancer, liver cancer, and lung cancer. To identify novel Wnt regulators by high throughput screening, a stable HEK293T cell line containing the TOPFlash reporter was established. Since β-catenin is often activated by mutations in the Wnt pathway, it is important to inhibit Wnt signaling downstream of β-catenin activity. Therefore, the screen was specifically designed to identify Wnt inhibitors that target events downstream of β-catenin. The Wnt signaling was activated by treating cells with lithium chloride to inhibit GSK3 and to stabilize β-catenin, mimicking the constitutively active Wnt signaling in cancer cells. Through this screen, a family of novel Wnt inhibitors that inhibited Wnt signaling at a 0.5-10 μM concentrations (Table 1) was identified.
# After 6 h, the cells were treated with 25 mM LiCl to activate Wnt signaling. The inhibition ratio of each compound was determined (Table 1).
# For the SAR studies, 58B1 (VMS-7-133) was re-synthesized. Additionally, SD70, a commercial KDM4 inhibitor, was both purchased and re-synthesized (VMS-7-175). […] VMS-7-195 is a biotinylated analog of 58B1. […] Specific KDM inhibitors may be used to target specific KDMs, such as KDM3A, which is highly expressed in many human cancers.
# Identification of a CBA-1 as a novel Wnt inhibitor. The present inventors routinely use TOPFlash reporter assay for Wnt inhibitor screening. To mimic the constitutively active Wnt signaling found in CRC cells, Wnt signaling was activated by inhibiting GSK3 and stabilizing β-catenin. From screening in house small-molecule libraries, CBA-1 (FIG. 4) was identified that inhibited Wnt signaling in TOPFlash reporter assay. To validate the screening results, CBA-1 was tested in CRC cells.
# UTX (KDM6A) = UTX (KDM6A) (Homo sapiens, UniProt O15550); experiment: Histone demethylase assay, purified enzyme panel; assay type: biochemical; conditions: Reference inhibitor
# Chain of UTX (KDM6A) (O15550 whole entry): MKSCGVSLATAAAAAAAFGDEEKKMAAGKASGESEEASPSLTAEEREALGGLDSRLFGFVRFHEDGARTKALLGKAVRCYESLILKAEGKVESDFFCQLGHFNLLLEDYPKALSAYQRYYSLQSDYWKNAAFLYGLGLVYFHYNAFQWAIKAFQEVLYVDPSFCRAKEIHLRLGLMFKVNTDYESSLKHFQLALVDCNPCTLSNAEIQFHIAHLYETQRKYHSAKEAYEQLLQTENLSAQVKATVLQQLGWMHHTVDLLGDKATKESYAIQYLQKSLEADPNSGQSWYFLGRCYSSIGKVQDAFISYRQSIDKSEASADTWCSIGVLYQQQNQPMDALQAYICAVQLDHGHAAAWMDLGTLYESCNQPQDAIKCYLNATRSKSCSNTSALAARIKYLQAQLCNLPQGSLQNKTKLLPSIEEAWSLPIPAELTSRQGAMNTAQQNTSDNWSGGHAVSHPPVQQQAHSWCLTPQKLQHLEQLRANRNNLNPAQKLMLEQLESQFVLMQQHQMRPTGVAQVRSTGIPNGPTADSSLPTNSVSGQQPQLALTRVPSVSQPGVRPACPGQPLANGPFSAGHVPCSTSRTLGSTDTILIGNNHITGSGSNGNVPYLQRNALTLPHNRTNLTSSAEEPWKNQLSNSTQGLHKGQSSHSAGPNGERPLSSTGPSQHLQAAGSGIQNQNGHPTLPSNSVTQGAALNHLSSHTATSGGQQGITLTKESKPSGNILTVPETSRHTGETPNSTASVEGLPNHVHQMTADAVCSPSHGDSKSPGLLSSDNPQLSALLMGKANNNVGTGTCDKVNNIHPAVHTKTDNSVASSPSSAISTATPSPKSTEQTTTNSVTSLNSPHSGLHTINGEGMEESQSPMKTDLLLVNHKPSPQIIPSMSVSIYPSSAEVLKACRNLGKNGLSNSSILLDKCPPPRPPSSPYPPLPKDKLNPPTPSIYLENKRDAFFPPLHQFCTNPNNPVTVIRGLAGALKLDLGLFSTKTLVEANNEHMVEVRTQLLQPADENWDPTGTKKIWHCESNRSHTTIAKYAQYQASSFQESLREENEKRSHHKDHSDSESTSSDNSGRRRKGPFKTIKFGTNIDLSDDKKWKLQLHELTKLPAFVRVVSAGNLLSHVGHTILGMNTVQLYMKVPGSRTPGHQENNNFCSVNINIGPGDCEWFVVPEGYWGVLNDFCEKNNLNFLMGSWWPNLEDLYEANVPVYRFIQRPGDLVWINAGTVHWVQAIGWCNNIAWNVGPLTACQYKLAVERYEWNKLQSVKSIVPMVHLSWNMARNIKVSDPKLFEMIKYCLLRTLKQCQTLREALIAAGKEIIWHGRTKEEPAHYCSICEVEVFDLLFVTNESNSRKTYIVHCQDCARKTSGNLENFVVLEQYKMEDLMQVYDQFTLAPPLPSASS
# Source text: (§1) Histone Demethylase Assay
# (§2) To further examine the effects of 58B1 on histone demethylase, we screened a panel of purified histone demethylases was screened.
# Jarid1B (KDM5B) = Jarid1B (KDM5B) (Homo sapiens, UniProt Q9UGL1); experiment: Histone demethylase assay, purified enzyme panel; assay type: biochemical; conditions: Reference inhibitor
# Chain of Jarid1B (KDM5B) (Q9UGL1 whole entry): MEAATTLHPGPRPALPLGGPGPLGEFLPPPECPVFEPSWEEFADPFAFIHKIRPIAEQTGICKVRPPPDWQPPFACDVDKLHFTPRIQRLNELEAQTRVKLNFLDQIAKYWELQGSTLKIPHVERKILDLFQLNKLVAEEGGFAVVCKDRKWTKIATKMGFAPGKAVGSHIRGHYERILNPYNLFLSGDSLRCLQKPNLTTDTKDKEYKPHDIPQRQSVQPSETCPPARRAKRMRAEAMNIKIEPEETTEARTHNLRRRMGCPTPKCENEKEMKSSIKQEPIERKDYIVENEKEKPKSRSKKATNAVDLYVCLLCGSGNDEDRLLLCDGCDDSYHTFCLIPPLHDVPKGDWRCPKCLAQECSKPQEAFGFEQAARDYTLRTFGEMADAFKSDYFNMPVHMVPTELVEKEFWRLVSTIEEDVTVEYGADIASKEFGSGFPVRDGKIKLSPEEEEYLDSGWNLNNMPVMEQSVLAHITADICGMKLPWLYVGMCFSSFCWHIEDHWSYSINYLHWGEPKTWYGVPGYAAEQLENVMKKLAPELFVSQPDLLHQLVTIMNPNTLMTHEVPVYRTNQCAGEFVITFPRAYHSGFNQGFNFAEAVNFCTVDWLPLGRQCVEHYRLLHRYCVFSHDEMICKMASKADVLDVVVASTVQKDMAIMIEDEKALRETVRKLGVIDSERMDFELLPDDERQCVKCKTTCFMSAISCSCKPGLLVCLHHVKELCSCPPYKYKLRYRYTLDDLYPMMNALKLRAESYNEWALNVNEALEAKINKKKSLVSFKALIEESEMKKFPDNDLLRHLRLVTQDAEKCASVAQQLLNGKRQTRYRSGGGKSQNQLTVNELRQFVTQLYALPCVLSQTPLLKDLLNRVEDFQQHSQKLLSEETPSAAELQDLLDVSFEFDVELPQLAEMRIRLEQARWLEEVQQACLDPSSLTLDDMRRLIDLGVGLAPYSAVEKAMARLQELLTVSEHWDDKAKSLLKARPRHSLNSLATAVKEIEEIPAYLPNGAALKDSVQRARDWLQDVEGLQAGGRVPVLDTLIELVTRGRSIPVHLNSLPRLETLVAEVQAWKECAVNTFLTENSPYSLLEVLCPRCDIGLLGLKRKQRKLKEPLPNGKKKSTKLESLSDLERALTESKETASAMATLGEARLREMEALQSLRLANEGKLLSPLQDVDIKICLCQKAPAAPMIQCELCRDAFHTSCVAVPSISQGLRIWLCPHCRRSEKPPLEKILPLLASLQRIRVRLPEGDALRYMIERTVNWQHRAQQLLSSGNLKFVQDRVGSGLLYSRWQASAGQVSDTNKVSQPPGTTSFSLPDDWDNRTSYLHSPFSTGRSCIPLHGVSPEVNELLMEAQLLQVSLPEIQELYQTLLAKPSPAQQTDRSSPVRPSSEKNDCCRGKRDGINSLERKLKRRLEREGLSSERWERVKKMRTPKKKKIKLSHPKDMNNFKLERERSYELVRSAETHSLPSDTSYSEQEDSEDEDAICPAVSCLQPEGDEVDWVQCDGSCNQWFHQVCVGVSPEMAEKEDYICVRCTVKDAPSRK
# Source text: as §1, §2
# JMJD1A (KDM3A) = target: T1, JMJD1A (KDM3A) (Homo sapiens, UniProt Q9Y4C1); experiment: Histone demethylase assay / KDM3A enzymatic activity in vitro; assay type: biochemical; conditions: for enzymatic activity of KDM3A: FIG. 12C
# T1 sequence (Q9Y4C1 1-1321): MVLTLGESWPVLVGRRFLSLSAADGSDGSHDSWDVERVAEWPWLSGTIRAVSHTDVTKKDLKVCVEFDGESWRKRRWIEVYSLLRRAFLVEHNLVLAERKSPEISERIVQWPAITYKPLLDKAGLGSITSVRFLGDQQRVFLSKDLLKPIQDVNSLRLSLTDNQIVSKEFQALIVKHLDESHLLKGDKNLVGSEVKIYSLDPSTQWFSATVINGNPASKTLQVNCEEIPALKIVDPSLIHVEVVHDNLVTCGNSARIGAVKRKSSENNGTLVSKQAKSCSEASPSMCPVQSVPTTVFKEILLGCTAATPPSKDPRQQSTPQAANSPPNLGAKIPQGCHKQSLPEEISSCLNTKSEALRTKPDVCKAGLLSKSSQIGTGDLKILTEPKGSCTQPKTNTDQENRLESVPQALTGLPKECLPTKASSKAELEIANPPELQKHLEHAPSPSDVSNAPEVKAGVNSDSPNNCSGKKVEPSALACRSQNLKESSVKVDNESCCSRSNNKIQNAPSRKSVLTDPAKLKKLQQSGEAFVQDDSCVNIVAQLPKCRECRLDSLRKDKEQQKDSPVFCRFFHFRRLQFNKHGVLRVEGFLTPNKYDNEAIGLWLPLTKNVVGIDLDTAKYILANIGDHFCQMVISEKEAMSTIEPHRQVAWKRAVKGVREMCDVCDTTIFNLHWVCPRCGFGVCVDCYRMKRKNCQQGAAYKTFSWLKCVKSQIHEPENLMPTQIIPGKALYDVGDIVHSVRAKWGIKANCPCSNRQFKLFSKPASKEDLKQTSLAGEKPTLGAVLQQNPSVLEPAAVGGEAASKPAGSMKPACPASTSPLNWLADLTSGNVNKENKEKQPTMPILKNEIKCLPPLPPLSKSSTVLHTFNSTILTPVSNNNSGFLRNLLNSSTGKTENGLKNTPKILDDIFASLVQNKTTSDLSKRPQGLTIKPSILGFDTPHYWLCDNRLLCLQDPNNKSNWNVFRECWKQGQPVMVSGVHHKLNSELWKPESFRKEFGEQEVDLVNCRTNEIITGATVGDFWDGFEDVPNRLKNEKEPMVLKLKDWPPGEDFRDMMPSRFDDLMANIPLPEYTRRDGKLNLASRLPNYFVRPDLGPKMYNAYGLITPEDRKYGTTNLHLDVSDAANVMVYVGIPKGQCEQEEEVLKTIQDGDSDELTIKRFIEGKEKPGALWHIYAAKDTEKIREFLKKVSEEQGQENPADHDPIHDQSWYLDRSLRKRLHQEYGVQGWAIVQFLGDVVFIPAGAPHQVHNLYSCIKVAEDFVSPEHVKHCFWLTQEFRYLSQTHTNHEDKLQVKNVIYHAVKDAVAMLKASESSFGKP
# Source text: as §1, §2
# Identification of KDM3A as a target of CBA-1. KDM3A regulated H3K9Me^2 and underwent significant upregulation in CRC. To test if CBA-1 targeted KDM3A, a biotinylated analog CBA-B2 (FIG. 7A) was synthesized. […] Knocking-down KDM3A by shRNA inhibited cell proliferation (FIG. 7D) and Wnt target gene expression in LS174T CRC cells (FIG. 7E).
# (§3) Repurposing drugs as CBA-1 analogs and KDM3 inhibitors. CBA-1 is a specific and potent KDM3A inhibitor. As backup candidates, two approved drugs were identified as CBA-1 analogs and KDM3A inhibitors. Based on the docking study (FIGS. 8A-B), the N and OH groups (red color in FIG. 12A) are critical in binding the Mn^2+ in KDM3A. […] A virtual screening was performed and several antibiotics that have similar structures were identified. Two of these antibiotics, clioquinol and nitroxoline (FIG. 12B), indeed inhibited the enzymatic activities of KDM3 (FIGS. 12C and D). These two drugs were tested in LS174T tumor xenograft model in SCID mice. […] Nitroxoline has been used in Europe for over 50 years as an antibiotic. It has anticancer effects, but the mechanism remains unclear.
# LS174T CRC xenografts = experiment: LS174T tumor xenograft model in SCID mice; assay type: in vivo; conditions: 50 mg/kg, p.o.
# Description: FIGS. 12A-E show images and graphs illustrating CBA-1 analogs from antibiotics. (A) Interaction of CBA-1 with Mn^2+. (B) Clioquinol (X=Cl; Y=I) and nitroxoline. (C-D) Inhibition of (C) KDM3A and (D) KDM3B enzymatic activities. (E) CBA-1 analogs (50 mg/kg, p.o.) inhibited LS174T CRC xenografts in SCID mice.
# as §3
# KDM3B = KDM3B (Homo sapiens, UniProt Q7LBC6); experiment: KDM3B enzymatic activity; assay type: biochemical; conditions: FIG. 12D
# Chain of KDM3B (Q7LBC6 whole entry, the tested form may be a part): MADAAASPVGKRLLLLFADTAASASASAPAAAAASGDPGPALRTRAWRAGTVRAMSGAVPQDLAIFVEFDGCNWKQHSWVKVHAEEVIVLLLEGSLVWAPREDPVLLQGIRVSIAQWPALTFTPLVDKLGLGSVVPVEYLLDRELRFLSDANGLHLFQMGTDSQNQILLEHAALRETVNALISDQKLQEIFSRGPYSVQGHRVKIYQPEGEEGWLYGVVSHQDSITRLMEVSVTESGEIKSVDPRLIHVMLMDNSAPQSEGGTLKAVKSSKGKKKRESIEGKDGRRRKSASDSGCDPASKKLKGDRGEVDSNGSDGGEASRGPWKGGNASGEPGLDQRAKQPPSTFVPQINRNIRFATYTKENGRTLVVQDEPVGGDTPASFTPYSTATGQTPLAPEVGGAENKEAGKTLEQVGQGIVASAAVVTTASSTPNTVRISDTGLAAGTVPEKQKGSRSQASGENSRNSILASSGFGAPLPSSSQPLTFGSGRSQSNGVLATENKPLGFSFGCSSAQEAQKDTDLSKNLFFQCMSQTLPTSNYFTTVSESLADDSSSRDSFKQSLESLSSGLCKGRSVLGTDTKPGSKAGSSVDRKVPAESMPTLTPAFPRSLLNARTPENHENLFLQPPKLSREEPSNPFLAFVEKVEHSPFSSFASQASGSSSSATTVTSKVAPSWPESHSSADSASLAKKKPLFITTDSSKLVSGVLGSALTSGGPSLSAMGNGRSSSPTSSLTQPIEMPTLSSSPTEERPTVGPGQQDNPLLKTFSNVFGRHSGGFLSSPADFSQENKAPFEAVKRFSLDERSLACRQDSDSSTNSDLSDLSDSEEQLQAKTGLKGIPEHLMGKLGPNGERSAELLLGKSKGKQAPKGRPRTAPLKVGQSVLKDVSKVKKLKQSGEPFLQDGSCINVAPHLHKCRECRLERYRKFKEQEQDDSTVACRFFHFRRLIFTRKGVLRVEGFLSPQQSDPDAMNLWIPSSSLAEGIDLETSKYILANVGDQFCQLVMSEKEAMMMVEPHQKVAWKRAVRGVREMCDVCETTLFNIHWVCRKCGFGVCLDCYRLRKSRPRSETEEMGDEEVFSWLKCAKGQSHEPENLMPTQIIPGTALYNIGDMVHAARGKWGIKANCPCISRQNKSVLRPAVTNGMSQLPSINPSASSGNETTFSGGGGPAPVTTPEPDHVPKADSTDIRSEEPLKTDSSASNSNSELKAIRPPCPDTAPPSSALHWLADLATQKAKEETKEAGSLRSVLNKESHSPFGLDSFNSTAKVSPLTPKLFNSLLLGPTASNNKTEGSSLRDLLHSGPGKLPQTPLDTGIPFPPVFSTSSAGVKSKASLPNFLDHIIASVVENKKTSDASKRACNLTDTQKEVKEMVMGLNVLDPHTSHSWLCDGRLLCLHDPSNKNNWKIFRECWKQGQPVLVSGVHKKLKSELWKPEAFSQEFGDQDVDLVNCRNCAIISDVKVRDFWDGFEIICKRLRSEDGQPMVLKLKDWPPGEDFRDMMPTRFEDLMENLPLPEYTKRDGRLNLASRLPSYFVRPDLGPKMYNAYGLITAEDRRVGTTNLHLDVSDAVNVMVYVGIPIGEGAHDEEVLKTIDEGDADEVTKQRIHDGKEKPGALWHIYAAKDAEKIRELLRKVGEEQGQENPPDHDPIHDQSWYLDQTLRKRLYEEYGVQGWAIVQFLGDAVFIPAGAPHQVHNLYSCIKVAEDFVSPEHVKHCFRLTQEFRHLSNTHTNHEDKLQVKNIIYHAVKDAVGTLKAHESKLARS
# Source text: Other KDM3 members as CBA-1 targets. Inhibition of KDM3A by CBA-1 increased H3K9Me^2 and inhibited Wnt signaling; however, other KDM3 members may also regulate H3K9 methylation. For example, both KDM3B and KDM3C (JMJD1C) regulated Wnt signaling. Given the high similarity of their structures (FIG. 10A), particularly the JmjC domains, it is believed that CBA-1 would inhibit KDM3B and KDM3C as well. […] CBA-1 coordinated with Mn^2+ at a longer distance in KDM3B (3.9 Å) than the distance in KDM3A (2.8 Å) (FIGS. 8B and 10B). This could be one of the reasons that CBA-1 inhibited KDM3A better than KDM3B.
# as §3
# [1] = Homo sapiens, HEK-293T, Table 1, HEK293T TOPFlash, 25 mM LiCl after 6 h
compound,measurement,setting,value
CCCC(=O)NC(c1ccco1)c1cc(Cl)c2cccnc2c1O (centres unmarked) [48M1],inhibition,Wnt signaling; [1],82%
CCC(=O)NC(c1ccco1)c1cc(Cl)c2cccnc2c1O (centres unmarked) [58B6],inhibition,Wnt signaling; [1],73%
CC(=O)NC(c1ccc(N(C)C)cc1)c1cc(Cl)c2cccnc2c1O (centres unmarked) [58D8],inhibition,Wnt signaling; [1],90%
CCCC(=O)NC(c1ccc(N(C)C)cc1)c1cc(Cl)c2cccnc2c1O (centres unmarked) [58F8],inhibition,Wnt signaling; [1],88%
CC(=O)NC(c1ccc(Cl)cc1)c1cc([N+](=O)[O-])c2cccnc2c1O (centres unmarked) [58H8],inhibition at 2.5 µM,"Wnt signaling; Homo sapiens, HEK-293T, Table 1, HEK293T TOPFlash, 2.5 µM of each compound, 25 mM LiCl after 6 h",80%
"O=C(O)CCNc1cc(N2CCc3ccccc3CC2)nc(-c2ccccn2)n1 [GSK-J1, reference compound]",% Inhibition,UTX (KDM6A),100%
same,% Inhibition,Jarid1B (KDM5B),100%
Clc1ccc(N/N=C(\c2ccccc2)c2ccccn2)nc1 [JIB-04],% Inhibition,JMJD1A (KDM3A); Reference inhibitor,100%
"CC(C)C(=O)NC(c1ccco1)c1ccc2cccnc2c1O (centres unmarked) [SD70, reference compound]",Percent inhibition at 1 μM,Wnt signaling; 1 µM,53.8%
same,Percent inhibition at 1 μM,"Wnt signaling; listed as VMS-7-175, 1 µM",49.7%
CCCC(=O)NC(c1ccc(N2CCC(C(=O)OCC)CC2)cc1)c1cc(Cl)c2cccnc2c1O (centres unmarked) [VMS-7-183],Percent inhibition at 1 μM,Wnt signaling,85.6%
Oc1c(I)cc(Cl)c2cccnc12 [clioquinol],tumor growth,LS174T CRC xenografts,inhibited tumor growth
same,enzymatic activity of KDM3B,KDM3B,inhibited
same,enzymatic activity of KDM3A,JMJD1A (KDM3A),inhibited
O=[N+]([O-])c1ccc(O)c2ncccc12 [nitroxoline],tumor growth,LS174T CRC xenografts,inhibited tumor growth
same,enzymatic activity of KDM3B,KDM3B,inhibited
same,enzymatic activity of KDM3A,JMJD1A (KDM3A),inhibited
